Results on 13 compounds are retold here after patent publication US20230322722A1, “MODULATORS OF MYC FAMILY PROTO-ONCOGENE PROTEIN” (Nalo Therapeutics, priority 2020, published 2023).

What is called inhibition is the share of the control response that was lost under treatment.

One test has as its target T1, MycN protein (n-myc) (Homo sapiens, UniProt P04198).
T1 construct: either 2×10^6 of L-363 (human leukemia cell line) or SKNBE2 (neuroblastoma cell line) cells; endogenous in cells; host or cells: SKNBE2 / SK-N-BE(2) neuroblastoma cells
T1 sequence (P04198 1-464): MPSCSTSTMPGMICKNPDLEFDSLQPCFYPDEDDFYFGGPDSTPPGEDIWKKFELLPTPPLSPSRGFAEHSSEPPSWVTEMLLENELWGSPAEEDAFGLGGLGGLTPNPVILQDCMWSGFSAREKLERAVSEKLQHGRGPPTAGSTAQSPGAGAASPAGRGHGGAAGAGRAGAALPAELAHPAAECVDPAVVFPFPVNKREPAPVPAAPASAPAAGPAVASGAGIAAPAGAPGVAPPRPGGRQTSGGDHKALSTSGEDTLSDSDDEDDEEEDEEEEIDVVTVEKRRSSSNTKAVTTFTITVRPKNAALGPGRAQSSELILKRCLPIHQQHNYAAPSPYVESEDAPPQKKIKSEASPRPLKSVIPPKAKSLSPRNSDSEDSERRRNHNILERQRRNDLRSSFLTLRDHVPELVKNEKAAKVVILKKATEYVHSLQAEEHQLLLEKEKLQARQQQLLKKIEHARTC
Put plainly: Degradation of MycN protein, 24 h treatment, JESS Western, SK-N-BE(2) cells (Example 161). Format: cell-based. The note with it: SKNBE2 cells. The method, then: (§1) For L363 cells (suspension), 1E6 cells were plated into each well of a 6 well plate. For SK-N-BE(2) cells (adherent), 5E5 cells were plated into each well of a 6 well dish. […] All compounds were diluted to 10 mM in DMSO. Cells were treated with the compound for 24 hrs, then for both cell types, media containing cells were removed from wells into a 15 ml centrifuge tube, and remaining adherent SK-N-BE(2) cells were also scraped from the wells into the appropriate tubes. Tubes were centrifuged, cells were washed with PBS then re-centrifuged to pellet cells. A RIPA buffer cocktail was added to the cells on ice for 5 mins. Cell lysates were clarified by centrifugation and stored at −80 degrees until required. BCA assay was performed on each lysate to determine the protein concentration.
(§2) For validation studies of antibodies, lysates and antibodies were used at a number of concentrations (Lysates: 2, 1, 0.2 mg/ml; Antibodies: 1 in 50, 1 in 200 dilution). Once an appropriate lysate concentration and antibody concentration was determined, samples were screened in the JESS technology (Protein Simple, San Jose, CA—https://www.proteinsimple.com/jess.html).
(§3) Target protein antibodies (n-myc and c-myc) were detected in the chemi-luminescence channel and loading controls (tubulin and GAPDH) were detected using a Near Infra Red (NIR) labeled secondary antibody.
(§4) For SK-N-EB2 adherent cells, 5E5 cells in 1.9 mls media were plated into 6 well dishes and incubated for 24 hrs. […] Cells were scrapped off the plate, centrifuged, washed with PBS, centrifuged, then a RIPA buffer cocktail added to the cells (100 ul), centrifuged and stored at −80 for later analysis. For L363 suspension cells, 1E6 cells were plated into […] (950 ul media) and incubated for 24 hrs. […] Cells were aspirated into tubes, centrifuged, washed with PBS, centrifuged, then a RIPA buffer cocktail added to the cells (100 ul), centrifuged and stored at −80 for later analysis.
(§5) For Western blot, a BCA (total protein) assay was run on all samples, these were then run in batches of 5 compounds plus control (DMSO) on each Western blot run—n-myc and c-myc were run in separate experiments in the chemiluminescence channel. Both tubulin and GAPDH were run as loading controls in all lanes in the near infra red channel.

In a further test the target is T2, MycC protein (c-myc) (Homo sapiens, UniProt P01106).
T2 construct: either 2×10^6 of L-363 (human leukemia cell line) cells; endogenous in cells; host or cells: L-363 / L363 human leukemia cells
T2 sequence (P01106 whole entry): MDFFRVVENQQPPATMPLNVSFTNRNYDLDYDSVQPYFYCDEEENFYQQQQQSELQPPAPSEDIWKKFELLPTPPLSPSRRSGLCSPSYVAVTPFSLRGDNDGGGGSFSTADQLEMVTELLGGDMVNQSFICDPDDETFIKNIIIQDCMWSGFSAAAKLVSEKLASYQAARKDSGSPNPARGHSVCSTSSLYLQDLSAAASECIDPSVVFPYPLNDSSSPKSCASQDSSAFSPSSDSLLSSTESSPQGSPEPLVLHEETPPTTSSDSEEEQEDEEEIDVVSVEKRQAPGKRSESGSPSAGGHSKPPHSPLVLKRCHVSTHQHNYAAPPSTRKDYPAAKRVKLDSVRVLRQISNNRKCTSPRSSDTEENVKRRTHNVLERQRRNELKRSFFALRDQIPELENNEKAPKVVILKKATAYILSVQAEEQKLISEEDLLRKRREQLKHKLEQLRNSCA
Put plainly: Degradation of MycC protein, 24 h treatment, JESS Western, L363 cells (Example 161). Format: cell-based. The note with it: L-363 cells. The method, then: as §1, §2, §3, §4, §5

`CN(c1nccc(Nc2cc(C3CC3)[nH]n2)n1)C1CCN(Cc2cc(F)cc(F)c2)CC1` [Compound 40, N4-(5-Cyclopropyl-1H-pyrazol-3-yl)-N2-(1-(3,5-difluorobenzyl)piperidin-4-yl)-N2-methylpyrimidine-2,4-diamine]: on MycN protein (n-myc), the inhibition at 0.5 µM was less than 20%, the inhibition at 1 µM was 20 to 49%, the inhibition at 3 µM fell in the range of 80 to 100% and the inhibition at 6 µM is 80 to 100%. On MycC protein (c-myc), the inhibition at 0.5 µM was less than 20%, the inhibition at 1 µM fell in the range of 80 to 100%, the inhibition at 3 µM is 80 to 100% and the inhibition at 6 µM was 80 to 100%.

On MycN protein (n-myc), `CN(c1nccc(Nc2cc(C3CC3)[nH]n2)n1)C1CC2(C1)CN(CC1CCOCC1)C2` [Compound 20, N4-(5-Cyclopropyl-1H-pyrazol-3-yl)-N2-methyl-N2-{2-[(oxan-4-yl)methyl]-2-azaspiro[3.3]heptan-6-yl}pyrimidine-2,4-diamine] had an inhibition at 3 µM of 20 to 49% and an inhibition at 6 µM of 50 to 79%. The inhibition at 6 µM against MycC protein (c-myc) lay in the range of 80 to 100%.

At MycN protein (n-myc), `CN(c1nccc(Nc2cc(C3CC3)[nH]n2)n1)C1CC2(C1)CN(Cc1ccccc1F)C2` [Compound 25, N4-(5-Cyclopropyl-1H-pyrazol-3-yl)-N2-(2-(2-fluorobenzyl)-2-azaspiro[3.3]heptan-6-yl)-N2-methylpyrimidine-2,4-diamine] yielded an inhibition at 3 µM of less than 20% and an inhibition at 6 µM of less than 20%. Further, at MycC protein (c-myc), the inhibition at 0.5 µM fell in the range of 20 to 49% and the inhibition at 1 µM lay within 20 to 49%.

As for `CN(c1nccc(Nc2cc(C3CC3)[nH]n2)n1)C1CC2(C1)CN(C(=O)c1cccc(C(F)(F)F)c1)C2` [Compound 34, (6-((4-((5-Cyclopropyl-1H-pyrazol-3-yl)amino)pyrimidin-2-yl)(methyl)amino)-2 azaspiro[3.3]heptan-2-yl)(3-(trifluoromethyl)phenyl)methanone], on MycN protein (n-myc), the inhibition at 0.5 µM is less than 20%, the inhibition at 1 µM was less than 20%, the inhibition at 3 µM lay in the range of 80 to 100% and the inhibition at 6 µM was 80 to 100%. On MycC protein (c-myc), this compound registered an inhibition at 3 µM of less than 20% and an inhibition at 6 µM of 80 to 100%.

With `CN(c1nccc(Nc2cc(C3CC3)[nH]n2)n1)C1CC2(C1)CN(Cc1cccc(S(C)(=O)=O)c1)C2` [Compound 28, N4-(5-Cyclopropyl-1H-pyrazol-3-yl)-N2-methyl-N2-(2-(3-(methylsulfonyl)benzyl)-2-azaspiro[3.3]heptan-6-yl)pyrimidine-2,4-diamine], the inhibition at 6 µM on MycN protein (n-myc) was in the range of 20 to 49%. Moreover, on MycC protein (c-myc), the inhibition at 3 µM was in the range of 80 to 100% and the inhibition at 6 µM was in the range of 80 to 100%.

Regarding `CN(c1nccc(Nc2cc(C3CC3)[nH]n2)n1)C1CC2(C1)CN(C(=O)c1cn(C)nn1)C2` [Compound 31, (6-((4-((5-Cyclopropyl-1H-pyrazol-3-yl)amino)pyrimidin-2-yl)(methyl)amino)-2-azaspiro[3.3]heptan-2-yl)(1-methyl-1H-1,2,3-triazol-4-yl)methanone], on MycN protein (n-myc), the inhibition at 0.5 µM was in the range of 20 to 49%, the inhibition at 1 µM was in the range of 50 to 79%, the inhibition at 3 µM is 80 to 100% and the inhibition at 6 µM fell in the range of 80 to 100%. At MycC protein (c-myc), the inhibition at 1 µM was 80 to 100%, the inhibition at 3 µM is 80 to 100% and the inhibition at 6 µM was in the range of 80 to 100%.

On MycN protein (n-myc), `CN(c1nccc(Nc2cc(C3CC3)[nH]n2)n1)C1CC2(C1)CN(Cc1cccc(OC(F)(F)F)c1)C2` [Compound 27, N4-(5-Cyclopropyl-1H-pyrazol-3-yl)-N2-methyl-N2-(2-(3-(trifluoromethoxy)benzyl)-2-azaspiro[3.3]heptan-6-yl)pyrimidine-2,4-diamine] returned an inhibition at 0.5 µM of 20 to 49%, an inhibition at 1 µM of 20 to 49% and an inhibition at 6 µM of less than 20%. Further, at MycC protein (c-myc), the inhibition at 0.5 µM was less than 20%, the inhibition at 1 µM is 20 to 49%, the inhibition at 3 µM was 50 to 79% and the inhibition at 6 µM is 80 to 100%.

`CN(c1nccc(Nc2cc(C3CC3)[nH]n2)n1)C1CC2(C1)CN(CC(=O)Nc1cccc(S(C)(=O)=O)c1)C2` [Compound 23, 2-(6-((4-((5-Cyclopropyl-1H-pyrazol-3-yl)amino)pyrimidin-2-yl)(methyl)amino)-2-azaspiro[3.3]heptan-2-yl)-N-(3-(methylsulfonyl)phenyl)acetamide] showed an inhibition at 6 µM at MycN protein (n-myc) of 80 to 100%. At MycC protein (c-myc), this compound had an inhibition at 0.5 µM of less than 20%, an inhibition at 1 µM of 50 to 79%, an inhibition at 3 µM of 80 to 100% and an inhibition at 6 µM of 80 to 100%.

Take `CN(c1nccc(Nc2cc(C3CCCC3)[nH]n2)n1)C1CCNCC1` [Compound 18, N4-(5-Cyclopentyl-1H-pyrazol-3-yl)-N2-methyl-N2-(piperidin-4-yl)pyrimidine-2,4-diamine]: on MycN protein (n-myc), the inhibition at 1 µM was in the range of 20 to 49%, the inhibition at 3 µM fell in the range of 80 to 100% and the inhibition at 6 µM was in the range of 80 to 100%. Besides, on MycC protein (c-myc), the inhibition at 1 µM is 80 to 100%, the inhibition at 3 µM is 80 to 100% and the inhibition at 6 µM lay within 80 to 100%.

At MycN protein (n-myc), `CN(c1nccc(Nc2cc(C3CC3)[nH]n2)n1)C1CC2(C1)CN(CCCc1nc3ccccc3o1)C2` [Compound 29, N2-(2-(3-(Benzo[d]oxazol-2-yl)propyl)-2-azaspiro[3.3]heptan-6-yl)-N4-(5-cyclopropyl-1H-pyrazol-3-yl)-N2-methylpyrimidine-2,4-diamine] yielded an inhibition at 0.5 µM of 20 to 49%, an inhibition at 1 µM of 20 to 49%, an inhibition at 3 µM of 50 to 79% and an inhibition at 6 µM of 80 to 100%. In addition, at MycC protein (c-myc), the inhibition at 0.5 µM fell in the range of 50 to 79%, the inhibition at 1 µM is 80 to 100%, the inhibition at 3 µM is 80 to 100% and the inhibition at 6 µM lay within 80 to 100%.

Turning to `CN(c1nccc(Nc2cc(C3CC3)[nH]n2)n1)C1CCN(C2CC2)CC1` [Compound 38, N4-(5-Cyclopropyl-1H-pyrazol-3-yl)-N2-(1-cyclopropylpiperidin-4-yl)-N2-methylpyrimidine-2,4 diamine], on MycN protein (n-myc), the inhibition at 0.5 µM lay in the range of 20 to 49%, the inhibition at 1 µM fell in the range of 50 to 79%, the inhibition at 3 µM lay within 80 to 100% and the inhibition at 6 µM lay within 80 to 100%. On MycC protein (c-myc), this compound registered an inhibition at 0.5 µM of 50 to 79%, an inhibition at 1 µM of 80 to 100%, an inhibition at 3 µM of 80 to 100% and an inhibition at 6 µM of 80 to 100%.

On MycN protein (n-myc), `CN(c1nccc(Nc2cc(C3CCCC3)[nH]n2)n1)C1CCN(C2CC2)CC1` [Compound 17, N4-(5-Cyclopentyl-1H-pyrazol-3-yl)-N2-(1-cyclopropylpiperidin-4-yl)-N2-methylpyrimidine-2,4-diamine] gave an inhibition at 0.5 µM of less than 20%, an inhibition at 1 µM of 20 to 49%, an inhibition at 3 µM of 80 to 100% and an inhibition at 6 µM of 80 to 100%. For the same compound, on MycC protein (c-myc), the inhibition at 1 µM lay in the range of 80 to 100%, the inhibition at 3 µM is 80 to 100% and the inhibition at 6 µM was in the range of 80 to 100%.

Turning to `Cc1nnsc1C(=O)N1CC2(CC(N(C)c3nccc(Nc4cc(C5CC5)[nH]n4)n3)C2)C1` [Compound 33, (6-((4-((5-Cyclopropyl-1H-pyrazol-3-yl)amino)pyrimidin-2-yl)(methyl)amino)-2-azaspiro[3.3]heptan-2-yl)(4-methyl-1,2,3-thiadiazol-5-yl)methanone], the inhibition at 6 µM against MycN protein (n-myc) lay within 80 to 100%. Also, at MycC protein (c-myc), the inhibition at 3 µM is 80 to 100% and the inhibition at 6 µM was in the range of 80 to 100%.
